This note sets out measurements from US8946215B2, “Hydroxy-substituted imidazo[1,2-a]pyridinecarboxamides and their use” (Bayer Pharma Aktiengesellschaft, priority 2012, dated 2015).

The assay concerns the target T1, recombinant guanylate cyclase reporter cell line (Rattus norvegicus, UniProt P19686+P20595).
T1 construct: expressed in transfected cells
T1 sequence (P20595 1-619): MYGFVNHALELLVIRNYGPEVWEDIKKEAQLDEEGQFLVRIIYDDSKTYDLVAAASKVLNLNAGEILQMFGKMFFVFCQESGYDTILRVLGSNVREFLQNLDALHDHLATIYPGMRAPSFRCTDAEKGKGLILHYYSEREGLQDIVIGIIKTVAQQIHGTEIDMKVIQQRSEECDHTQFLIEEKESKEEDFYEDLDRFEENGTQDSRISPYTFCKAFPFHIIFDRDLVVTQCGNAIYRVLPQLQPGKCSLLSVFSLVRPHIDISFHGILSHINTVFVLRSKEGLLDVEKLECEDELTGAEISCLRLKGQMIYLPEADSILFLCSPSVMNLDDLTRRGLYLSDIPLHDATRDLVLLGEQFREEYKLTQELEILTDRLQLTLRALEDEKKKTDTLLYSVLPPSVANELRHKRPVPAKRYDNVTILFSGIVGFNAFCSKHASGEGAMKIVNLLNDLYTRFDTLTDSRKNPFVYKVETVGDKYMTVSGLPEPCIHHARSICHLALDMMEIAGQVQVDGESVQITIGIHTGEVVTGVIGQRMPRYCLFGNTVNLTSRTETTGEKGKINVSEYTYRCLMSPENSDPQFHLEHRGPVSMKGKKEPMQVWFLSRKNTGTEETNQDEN
T1 sequence (P19686 1-690): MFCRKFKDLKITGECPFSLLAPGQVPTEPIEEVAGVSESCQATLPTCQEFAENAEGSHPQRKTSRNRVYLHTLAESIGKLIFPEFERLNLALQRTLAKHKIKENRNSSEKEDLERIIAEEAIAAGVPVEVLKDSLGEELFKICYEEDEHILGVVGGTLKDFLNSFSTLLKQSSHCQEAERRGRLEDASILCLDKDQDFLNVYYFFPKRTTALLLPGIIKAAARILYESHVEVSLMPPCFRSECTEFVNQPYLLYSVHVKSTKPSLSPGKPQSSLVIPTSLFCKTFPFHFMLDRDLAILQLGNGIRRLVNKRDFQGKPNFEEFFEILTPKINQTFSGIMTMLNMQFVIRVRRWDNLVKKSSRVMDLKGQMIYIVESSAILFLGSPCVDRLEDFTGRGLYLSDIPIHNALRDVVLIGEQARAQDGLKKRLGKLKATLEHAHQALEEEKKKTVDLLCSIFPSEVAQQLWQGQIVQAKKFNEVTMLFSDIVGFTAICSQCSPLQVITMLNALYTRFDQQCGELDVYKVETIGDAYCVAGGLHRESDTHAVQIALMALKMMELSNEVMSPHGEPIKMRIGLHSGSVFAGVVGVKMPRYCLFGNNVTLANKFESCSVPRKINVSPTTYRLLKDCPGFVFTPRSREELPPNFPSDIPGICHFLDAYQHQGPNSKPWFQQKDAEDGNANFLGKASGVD
Nature of the assay: Action on recombinant guanylate cyclase reporter cell line. It counts as cell-based. To be noted: in some cases mean values obtained from individual determinations. The protocol:
B-2. Action on Recombinant Guanylate Cyclase Reporter Cell Line
The cellular action of the compounds according to the invention is determined on a recombinant guanylate cyclase reporter cell line, as described in F. Wunder et al., Anal. Biochem. 339, 104-112 (2005).
Representative values (MEC=minimal effective concentration) for the compounds according to the invention are shown in the following table (in some cases as mean values obtained from individual determinations): […]
Regarding `Cc1nc2c(OCc3c(F)cccc3F)cccn2c1C(=O)NC(CO)CC(F)(F)F` (single isomer, unassigned; ent-8) [Example 121, ent-8-[(2,6-Difluorobenzyl)oxy]-2-methyl-N-(4,4,4-trifluoro-1-hydroxybutan-2-yl)imidazo[1,2-a]-pyridine-3-carboxamide], the “MEC (minimal effective concentration)” value is 0.03 µM.

Turning to `Cc1nc2c(OCc3c(F)cccc3F)cccn2c1C(=O)NC(CO)CCC(F)(F)F` (single isomer, unassigned; ent-8) [Example 122, ent-8-[(2,6-Difluorobenzyl)oxy]-2-methyl-N-(5,5,5-trifluoro-1-hydroxypentan-2-yl)imidazo[1,2-a]-pyridine-3-carboxamide], the “MEC (minimal effective concentration)” value was 0.03 µM.

For the compound `Cc1nc2c(OCc3c(F)cccc3F)cccn2c1C(=O)NC(CO)CCCC(F)(F)F` (single isomer, unassigned; ent-8) [Example 123, ent-8-[(2,6-Difluorobenzyl)oxy]-2-methyl-N-(6,6,6-trifluoro-1-hydroxyhexan-2-yl)imidazo[1,2-a]-pyridine-3-carboxamide], the “MEC (minimal effective concentration)” value came out at 0.03 µM.

Turning to `Cc1nc2c(OCc3c(F)cccc3F)cccn2c1C(=O)NC(CC(F)(F)F)C(C)(C)O` (single isomer, unassigned; ent-8) [Example 154, ent-8-[(2,6-Difluorobenzyl)oxy]-2-methyl-N-(1,1,1-trifluoro-4-hydroxy-4-methylpentan-3-yl)-imidazo[1,2-a]pyridine-3-carboxamide], the “MEC (minimal effective concentration)” value was found to be 0.03 µM.

With `Cc1nc2c(OCc3c(F)cccc3F)cccn2c1C(=O)NC(CCC(F)(F)F)C(C)(C)O` (single isomer, unassigned; ent-8) [Example 155, ent-8-[(2,6-Difluorobenzyl)oxy]-2-methyl-N-(6,6,6-trifluoro-2-hydroxy-2-methylhexan-3-yl)-imidazo[1,2-a]pyridine-3-carboxamide], the “MEC (minimal effective concentration)” value was 0.1 µM.

For `Cc1nc2c(OCc3c(F)cccc3F)cccn2c1C(=O)NC(CCCC(F)(F)F)C(C)(C)O` (single isomer, unassigned; ent-8) [Example 156, ent-8-[(2,6-Difluorobenzyl)oxy]-2-methyl-N-(7,7,7-trifluoro-2-hydroxy-2-methylheptan-3-yl)-imidazo[1,2-a]pyridine-3-carboxamide], the “MEC (minimal effective concentration)” value came to 0.03 µM.

In the case of `CCOCC(CO)NC(=O)c1c(C)nc2c(OCc3c(F)cccc3F)cccn12` (single isomer, unassigned; ent-8) [Example 161, ent-8-[(2,6-Difluorobenzyl)oxy]-N-(1-ethoxy-3-hydroxypropan-2-yl)-2-methylimidazo[1,2-a]-pyridine-3-carboxamide (enantiomer A)], the “MEC (minimal effective concentration)” value came out at 1.0 µM.

Consider `CCCCC(NC(=O)c1c(C)nc2c(OC(C)c3c(F)cccc3F)cc(C)cn12)C(C)(C)O` (single isomer, unassigned; ent-8) [Example 171, ent-8-[1-(2,6-Difluorophenyl)ethoxy]-N-(2-hydroxy-2-methylheptan-3-yl)-2,6-dimethylimidazo-[1,2-a]pyridine-3-carboxamide], for which the “MEC (minimal effective concentration)” value was determined as 1.0 µM.

On to `Cc1nc2c(OCc3ncccc3F)cccn2c1C(=O)NC(CCCC(F)(F)F)C(C)(C)O` (single isomer, unassigned; ent-8) [Example 182, ent-8-[(3-fluoropyridin-2-yl)methoxy]-2-methyl-N-(7,7,7-trifluoro-2-hydroxy-2-methylheptan-3-yl)imidazo[1,2-a]pyridine-3-carboxamide (enantiomer A)], for which the “MEC (minimal effective concentration)” value was found to be 0.65 µM.

As for `Cc1nc2c(OCc3ncccc3F)cccn2c1C(=O)NC(CCCC(F)(F)F)C(C)(C)O` (single isomer, unassigned; ent-8) [Example 183, ent-8-[(3-fluoropyridin-2-yl)methoxy]-2-methyl-N-(7,7,7-trifluoro-2-hydroxy-2-methylheptan-3-yl)imidazo[1,2-a]pyridine-3-carboxamide (enantiomer B)], the “MEC (minimal effective concentration)” value amounted to 0.3 µM.
